Common to all, as to experiment: two-electrode voltage clamp, Xenopus oocytes
Test [1] concerns T1, X1-CγX4.
T1 construct: gene P2RX1; hP2X1 with residues 210-215 replaced by the corresponding rP2X4 segment; Xenopus oocytes
The format is cell-based, Homo sapiens; Rattus norvegicus. The following applies: agonist; 3 s application; ND96 with Ba2+, -60 mV. From the text: two-electrode voltage clamp, Xenopus oocytes on X1-CγX4

The test system of test [2] is T2, X1-DX4.
T2 construct: gene P2RX1; hP2X1 with residues 262-330 (hP2X1 numbering) replaced by the corresponding rP2X4 segment; Xenopus oocytes
The format is cell-based, Homo sapiens; Rattus norvegicus. Conditions: ND96 with Ba2+, -60 mV. From the text:
two-electrode voltage clamp, Xenopus oocytes on X1-DX4

Test [3] relates to T3, X1-CαX4.
T3 construct: gene P2RX1; text says 184-209) replaced by the corresponding rP2X4 segment; Xenopus oocytes
It is filed as cell-based, Homo sapiens; Rattus norvegicus. Conditions: agonist; 3 s application; ND96 with Ba2+, -60 mV. The source says:
two-electrode voltage clamp, Xenopus oocytes on X1-CαX4

The test system of test [4] is T4, X1-CζX4.
T4 construct: gene P2RX1; hP2X1 with residues 227-231 replaced by the corresponding rP2X4 segment; Xenopus oocytes
The format is cell-based, Homo sapiens; Rattus norvegicus. Conditions: agonist; 3 s application; ND96 with Ba2+, -60 mV. From the text:
two-electrode voltage clamp, Xenopus oocytes on X1-CζX4

Test [5] has as its system T5, X1-CβX4.
T5 construct: gene P2RX1; hP2X1 with residues 232-261 replaced by the corresponding rP2X4 segment; Xenopus oocytes
The format is cell-based, Homo sapiens; Rattus norvegicus. The following applies: agonist; 3 s application; ND96 with Ba2+, -60 mV. From the text:
two-electrode voltage clamp, Xenopus oocytes on X1-CβX4

For test [6], the system named is T6, X1-BX4.
T6 construct: gene P2RX1; hP2X1 with residues 133-184 (hP2X1 numbering) replaced by the corresponding rP2X4 segment; Xenopus oocytes
It is filed as cell-based, Homo sapiens; Rattus norvegicus. Conditions: agonist; 3 s application; ND96 with Ba2+, -60 mV.

For test [7], the system named is T7, X1-CX4.
T7 construct: gene P2RX1; hP2X1 with residues 185-261 (hP2X1 numbering) replaced by the corresponding rP2X4 segment; Xenopus oocytes
It is filed as cell-based, Homo sapiens; Rattus norvegicus. Conditions: ND96 with Ba2+, -60 mV. From the text: two-electrode voltage clamp, Xenopus oocytes on X1-CX4

For test [8], the target named is T8, hP2X1 receptor (Homo sapiens, UniProt P51575).
T8 construct: gene P2RX1; full-length cDNA cloned from bladder; homotrimer; cRNA expressed in Xenopus laevis oocytes
T8 sequence (P51575 1-399): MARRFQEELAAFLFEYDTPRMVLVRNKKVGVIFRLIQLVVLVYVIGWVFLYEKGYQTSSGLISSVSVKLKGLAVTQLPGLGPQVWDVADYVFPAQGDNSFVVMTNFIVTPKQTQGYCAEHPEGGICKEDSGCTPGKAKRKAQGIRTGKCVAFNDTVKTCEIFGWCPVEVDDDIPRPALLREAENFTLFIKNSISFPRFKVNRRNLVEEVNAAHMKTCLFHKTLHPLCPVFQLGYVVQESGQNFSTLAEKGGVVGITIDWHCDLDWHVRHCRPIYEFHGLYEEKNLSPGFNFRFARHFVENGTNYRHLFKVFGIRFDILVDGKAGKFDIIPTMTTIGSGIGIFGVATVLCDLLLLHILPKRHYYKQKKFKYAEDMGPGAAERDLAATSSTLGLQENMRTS
The format is cell-based. The source says:
two-electrode voltage clamp, Xenopus oocytes on hP2X1 receptor

For test [9], the system named is T9, X1-CδX4.
T9 construct: gene P2RX1; hP2X1 with residues 216-220 replaced by the corresponding rP2X4 segment; Xenopus oocytes
It is filed as cell-based, Homo sapiens; Rattus norvegicus. Conditions: agonist; 3 s application; ND96 with Ba2+, -60 mV. The source says: two-electrode voltage clamp, Xenopus oocytes on X1-CδX4

The subject of test [10] is T10, X1-AX4.
T10 construct: gene P2RX1; hP2X1 with residues 63-132 replaced by the corresponding rP2X4 segment (63-133); Xenopus oocytes
It is filed as cell-based, Homo sapiens; Rattus norvegicus. The following applies: ND96 with Ba2+, -60 mV. The source says: two-electrode voltage clamp, Xenopus oocytes on X1-AX4

Test [11] deals with T11, X1-CϵX4.
T11 construct: gene P2RX1; hP2X1 with residues 221-226 replaced by the corresponding rP2X4 segment; Xenopus oocytes
It is filed as cell-based, Homo sapiens; Rattus norvegicus. Conditions: agonist; 3 s application; ND96 with Ba2+, -60 mV. The source says: two-electrode voltage clamp, Xenopus oocytes on X1-CϵX4

Test [12] relates to T6, X1-BX4. The format is cell-based, Homo sapiens; Rattus norvegicus. Conditions: ND96 with Ba2+, -60 mV. From the text: two-electrode voltage clamp, Xenopus oocytes on X1-BX4
Test [13] deals with T12, rP2X4 receptor (Rattus norvegicus, UniProt P51577, Y378A).
T12 construct: gene P2rx4; homotrimer; cRNA expressed in Xenopus laevis oocytes
T12 sequence (P51577 1-388 Y378A): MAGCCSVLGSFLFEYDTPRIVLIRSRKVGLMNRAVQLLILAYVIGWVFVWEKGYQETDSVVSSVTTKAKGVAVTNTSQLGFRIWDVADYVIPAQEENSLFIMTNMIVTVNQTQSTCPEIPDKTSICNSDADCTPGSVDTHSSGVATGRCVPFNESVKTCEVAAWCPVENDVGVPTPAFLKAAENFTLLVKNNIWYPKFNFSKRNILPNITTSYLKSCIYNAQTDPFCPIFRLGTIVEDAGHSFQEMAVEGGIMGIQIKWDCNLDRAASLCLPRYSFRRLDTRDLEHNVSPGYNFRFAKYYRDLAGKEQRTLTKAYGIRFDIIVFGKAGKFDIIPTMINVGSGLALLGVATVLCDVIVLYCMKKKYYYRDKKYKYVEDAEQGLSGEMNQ
It is filed as cell-based. From the text: two-electrode voltage clamp, Xenopus oocytes on rP2X4 receptor

Test [14] concerns T6, X1-BX4. It is filed as cell-based, Homo sapiens; Rattus norvegicus. The following applies: antagonist at EC90 of ATP; 5 min preincubation; ND96 with Ba2+, -60 mV.
Test [15] concerns the target T13, rP2X4 receptor (Rattus norvegicus, UniProt P51577, D138K/H140K/S136K/T139R/Y378A).
T13 construct: gene P2rx4; homotrimer; cRNA expressed in Xenopus laevis oocytes
T13 sequence (P51577 1-388 S136K/D138K/T139R/H140K/Y378A): T12 sequence (P51577 1-388 Y378A) with S136K, D138K, T139R, H140K
It is filed as cell-based. Conditions: read-out: % of control at 1 μM.

Setting [16] is: read-out: ATP / pEC50 (converted).
[17] abbreviates: antagonist at EC90 of ATP, 5 min preincubation.

Structures are written as SMILES. Residue numbers refer to the chain shown, from its start. Bounds are passed on as bounds.

Experimental findings from publication PMC4340402 (The Journal of Biological Chemistry, 2014) are described below.

Consider `Nc1ncnc2c1ncn2[C@@H]1O[C@H](COP(=O)(O)OP(=O)(O)OP(=O)(O)O)[C@@H](O)[C@H]1O` [ATP], for which the “ATP / pEC50” value in test [1] was 5.71 ± 0.06; in test [2] (agonist, 3 s application), 5.08 ± 0.04; in [3] it was 5.34 ± 0.05; in [4], 5.54 ± 0.06; in test [5] it was 5.30 ± 0.06; in [7] (agonist, 3 s application) it was 6.17 ± 0.13. Further, the “ATP / pEC50” value is listed as 5.21 ± 0.04 in test [9]; 4.43 ± 0.08 in test [10] (agonist, 3 s application); 5.68 ± 0.06 in test [11]; 4.28 ± 0.04 in test [12] (agonist, 3 s application). In test [6], this compound returned a pEC50 of 3.6 ± 0.1. Also, the results for the EC50 in test [8] (setting [16]) and in [13] (setting [16]) were 0.49 µM and 4.07 µM, respectively.

In turn, `O=C(Nc1cc(C(=O)Nc2ccc(S(=O)(=O)O)cc2S(=O)(=O)O)cc(C(=O)Nc2ccc(S(=O)(=O)O)cc2S(=O)(=O)O)c1)Nc1cc(C(=O)Nc2ccc(S(=O)(=O)O)cc2S(=O)(=O)O)cc(C(=O)Nc2ccc(S(=O)(=O)O)cc2S(=O)(=O)O)c1` [NF449, 4,4′,4″,4‴-(carbonylbis(imino-5,1,3-benzenetriylbis(carbonylimino)))tetrakisbenzene-1,3-disulfonic acid] registered a pIC50 in test [14] of 9.28 ± 0.05. For the same compound, in [15], the remaining activity at 1 µM worked out at 104 ± 5.3%. Besides, the IC50 in test [13] was more than 1 µM.

For `Cc1nc(N=Nc2ccc(S(=O)(=O)O)cc2S(=O)(=O)O)c(COP(=O)(O)O)c(C=O)c1O` [PPADS, pyridoxal-phosphate-6-azophenyl-2,4-disulfonate], the “PPADS / pIC50” value in test [2] (setting [17]) is reported as 6.95 ± 0.07; in test [7] (setting [17]) it was 5.47 ± 0.12; in [10] (setting [17]), 6.18 ± 0.02; in test [12] (setting [17]), 5.24 ± 0.12. Moreover, the IC50 in test [8] (read-out: PPADS / pIC50 (converted)) was 1.58 µM; in test [13], more than 100 µM.

As to `Cc1ccc(C(=O)Nc2ccc(S(=O)(=O)O)c3cc(S(=O)(=O)O)cc(S(=O)(=O)O)c23)cc1NC(=O)c1cccc(NC(=O)Nc2cccc(C(=O)Nc3cc(C(=O)Nc4ccc(S(=O)(=O)O)c5cc(S(=O)(=O)O)cc(S(=O)(=O)O)c45)ccc3C)c2)c1` [Suramin], in test [13], the IC50 is more than 100 µM.
